According to patent US20060094693A1, “Methods and compositions for treating glucose-associated conditions, metabolic syndrome, dyslipidemias and other conditions” (Point Therapeutics, Inc., priority 2004, published 2006):

Assays:
[1] = test system: Zucker Diabetic Fatty (ZDF) rats; assay: 6 week glycemic control study in Zucker Diabetic Fatty rats; format: in vivo
Experimental: The design of the 6 week long study is depicted in FIG. 8. 60 male Zucker Diabetic Fatty (ZDF) rats (5 weeks of age) were obtained from Charles River Labs. The animals are housed singly and allowed to acclimatize for 1 week before the initiation of the study. 24-hour food intake and body weight was measured gravimetrically twice weekly from the start of housing. HbA1C levels were measured at Day 0, 7, 14, 28 and 46. OGTT was administered on Day 2-3, 15 minutes after the administration of the drugs. OGTT was administered again at the end of the study but in this case, drugs were given 15 hours prior to the OGTT. The 24-hour glucose profile was monitored at day 14-15 of the study.
The insulin sensitivity index was calculated at the termination of the study according to the method described by Matsuda and DeFronzo (Diabetes Care. 1999 Sep.;22(9):1462-70).

serum DPP-IV [2] = biological target: T1, serum DPP-IV (Mus musculus, UniProt P28843); assay: Serum DPP-IV inhibition in vivo after oral gavage (Example 2); design: species or system BALB/c mice
T1 construct: from tissue; host or cells: serum of BALB/c mice dosed orally
Experimental: Assay of serum DPP-IV inhibition in vivo. […] DPP-IV activity was determined by reaction of 10 μl serum with 90 μl of 0.11 mM Ala-Pro-AFC (Enzyme System Products, Dublin, Calif.) in 50 mM HEPES/Na buffer pH 7.6, 140 mM NaCl.

Zucker fa/fa rats [3] = assay: Rat oral glucose tolerance test (glucose, insulin, GLP-1); format: in vivo; settings: 10 μmol/kg oral
From the text: Protocol for rat oral glucose tolerance test (OG7T). […] On days −11 to −8, rats were fitted with intra-arterial catheters under light isoflurane anesthesia. […] From 12:00 a.m.

ob/ob mice = assay: Mouse oral glucose tolerance test (OGTT); format: in vivo
Experimental: Protocol for mouse oral glucose tolerance test (OGTT). The day of oral-glucose challenge was defined as day 0. […] Agents were administered by oral gavage. Mice were restricted to a diet of 50% of their individual calculated food intake from day −1 onwards. On day 0, blood glucose was measured at […]. immediately followed by drug administration. At time point 0, glucose was administered by oral gavage (1g/kg), and blood glucose was measured at time points 0, 30, 60, 120 and 240 minutes. Means±SE were calculated from the data of individual mice in drug-treatment groups 1 and 2.

[4] = biological target: T2, soluble recombinant human DPP-IV (Homo sapiens, UniProt P27487); assay: In vitro assay of enzymatic activity of recombinant soluble DPP-IV and inhibition by amino boronic dipeptides; format: biochemical; settings: assayed 3 minutes, 78 minutes and 16 hours after addition of Ala-Pro-AFC
T2 construct: immunoglobulin kappa light chain secretion signal (pSecTag2-B) (N, cleaved yes); made in house; host or cells: 293T cells, transient transfection; unpurified culture supernatant used
From the text: Production of soluble recombinant human DPP-IV. Based on information on the N-terminus of serum DPP-IV (15), a truncated DPP-IV was engineered in which a signal/leader sequence was joined to the residue in DPP-IV corresponding to the N-terminus of serum DPP-IV to allow secretion. The cDNA encoding the desired truncated human DPP-IV dimer enzyme was engineered into the mammalian secretion vector pSecTag2 (Cat# V900-20, InVitrogen Corporation). The vector, available in A, B or C versions, representing three possible phases for gene fusion, contained an immunoglobulin-kappa light chain secretion signal followed by a selection of restriction sites for gene insertion. The fusion required engineering a restriction site upstream of the chosen fusion amino acid in the 5′ end of the DPP-IV dimer enzyme nucleic acid in phase with the chosen restriction site (Sfi I) in the vector secretion sequence. The chosen fusion amino acid in the 5′ end of the DPP-IV (Ser39) was 3′ of the trans-membrane anchoring domain. The pSecTag2 version B and its Sfi I restriction site was chosen for the fusion because it minimizes the additional N-terminal, vector-encoded residues in the mature secreted protein.
Construction of the fusion was as follows. First, total RNA was isolated from the Caco-2 colorectal carcinoma cell line (ATCC HTB-37) by standard Trizol/phenol/chloroform methodology. The purified RNA (approx. 2.5 μg in a 20 μl reaction) was used to make cDNA using oligo-dT primer and a commercial reverse transcription (RT) kit (InVitrogen). […] The following thermal cycler program was used: 94° C. for 45 sec. initial denaturation, then 30 cycles of 94° C., 10 sec.; 48° C., 6 sec.; 60° C., 4 min; followed by 5-min. extension at 72° C. after cycling.
DNA from the plasmid encoding DPP-IV dimer enzyme was prepared on an approximately 400 μg scale from overnight 30 ml cultures in Luria broth with 100 μg ampicillin per ml using a commercial kit (Qiagen Maxiprep Kit).
In vitro assay of enzmatic activity ofrecombinant soluble DPP-IV and inhibition by amino boronic dipeptides. The assay reaction mixture consisted of 135 μl 50 mM HEPES/Na buffer pH 7.6, 140 mM NaCl, 10-15 gl enzyme-containing culture supernatant, dipeptide substrate Ala-Pro-(7-amino-4-trifluoromethyl coumarin) (Ala-Pro-AFC; Enzyme System Products, Dublin, Calif.) at typically 0.1-1 mM added from a 100 or 400 mM stock in dimethyl formamide. The reaction mixture was incubated at room temperature, and production of the fluorescent AFC product was measured in a fluorometer (excitation, 400 nm; emission 505 nm), either by continuous monitoring or after termination with a one to one-tenth volume of 1 -M sodium acetate, pH 4.5. Fluorometric reading were made with a Molecular Dynamics Spectra Max GeminiXS capable of reading 96-well microtiter plates. The inhibitory activity of amino boronic dipeptides was investigated by preincubation of assay reaction mixtures with varying concentrations of each compound for 10 minutes before the addition of the substrate Ala-Pro-AFC.

Zucker fa/fa rats [5] = assay: Single oral dose before oral glucose challenge, Zucker Fa/Fa rats (Example 10); format: in vivo; settings: single oral dose 15 minutes prior to oral glucose
From the text: The data shown in FIG. 15 are mean values from 6 rats per treatment.

Lewis rats = assay: in vivo; settings: Lewis, rat, in vivo, 5 days
Experimental: (§2) Serum DPP-IV inhibition and observation of acute toxicity of amino boronic dipeptides in Lewis rats. […] After observations were completed or at the onset of a moribund state, humane euthanasia was performed by asphyxiation in 100% CO2.

in vivo = settings: Lewis, rat, in vivo
Experimental: as §2

serum DPP-IV [6] = biological target: T1, serum DPP-IV; assay: Serum DPP-IV activity 2 hours after oral amino boronic dipeptides (Example 4); format: in vivo, BALB/c mice; settings: 20 and 200 μg doses
Experimental: (§1) Assay ofserum DPP-IV inhibition and KC/CXCL1 levels in vivo. […] Each mouse received a single administration of each amino boronic dipeptide or saline, and blood samples were withdrawn from mice 2 hours later.
Serum DPP-IV activity was determined by reaction of a 10 μl volume of serum with 0.1 mM Ala-Pro-AFC (Enzyme System Products, Dublin, Calif.) in a 100 μl volume of 50 mM HEPES/Na buffer pH 7.6, 140 mM NaCl. […] Serum DPP-IV activity was expressed as fluorescent units (FU).

DIO rats = assay: Single oral dose before oral glucose challenge, DIO rats (Example 10); format: in vivo; settings: single oral dose 15 minutes prior to oral glucose
From the text: The data shown in FIG. 16A are mean values from 10 rats per treatment.
The data shown in FIG. 16B are mean values from 10 rats per treatment.

serum KC/CXCL1 = assay: Serum KC/CXCL1 levels in vivo (ELISA); design: species or system BALB/c mice; settings: 0.2-200 μg/mouse oral, 2 hours
Experimental: as §1
Serum concentration of mouse KC/CXCL1 was determined by Quantikine enzyme-linked immunosorbent assay (ELISA; R&D Systems, Minneapolis, Minn.) according to the manufacturer's instructions. ELISA was performed in duplicate for each sample.

T1 sequence (P28843 37-760 limits assumed): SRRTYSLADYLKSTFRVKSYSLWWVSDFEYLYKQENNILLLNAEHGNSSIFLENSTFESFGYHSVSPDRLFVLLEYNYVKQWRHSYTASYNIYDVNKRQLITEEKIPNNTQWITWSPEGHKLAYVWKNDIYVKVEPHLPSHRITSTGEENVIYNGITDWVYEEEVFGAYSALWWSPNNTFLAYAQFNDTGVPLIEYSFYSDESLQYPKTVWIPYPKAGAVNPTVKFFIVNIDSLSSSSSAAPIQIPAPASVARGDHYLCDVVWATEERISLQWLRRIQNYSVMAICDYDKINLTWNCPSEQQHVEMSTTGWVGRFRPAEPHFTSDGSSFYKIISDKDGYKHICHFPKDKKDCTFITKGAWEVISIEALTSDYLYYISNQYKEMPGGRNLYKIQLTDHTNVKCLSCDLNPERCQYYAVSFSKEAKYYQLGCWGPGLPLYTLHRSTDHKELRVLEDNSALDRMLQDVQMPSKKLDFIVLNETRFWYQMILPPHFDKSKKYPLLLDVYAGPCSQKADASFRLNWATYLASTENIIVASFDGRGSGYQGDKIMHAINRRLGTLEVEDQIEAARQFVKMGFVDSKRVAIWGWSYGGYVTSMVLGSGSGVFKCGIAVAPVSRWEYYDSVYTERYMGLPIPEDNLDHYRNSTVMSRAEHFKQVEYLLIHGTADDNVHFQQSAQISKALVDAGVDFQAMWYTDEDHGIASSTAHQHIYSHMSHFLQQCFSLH
T2 sequence (P27487 39-766 limits assumed): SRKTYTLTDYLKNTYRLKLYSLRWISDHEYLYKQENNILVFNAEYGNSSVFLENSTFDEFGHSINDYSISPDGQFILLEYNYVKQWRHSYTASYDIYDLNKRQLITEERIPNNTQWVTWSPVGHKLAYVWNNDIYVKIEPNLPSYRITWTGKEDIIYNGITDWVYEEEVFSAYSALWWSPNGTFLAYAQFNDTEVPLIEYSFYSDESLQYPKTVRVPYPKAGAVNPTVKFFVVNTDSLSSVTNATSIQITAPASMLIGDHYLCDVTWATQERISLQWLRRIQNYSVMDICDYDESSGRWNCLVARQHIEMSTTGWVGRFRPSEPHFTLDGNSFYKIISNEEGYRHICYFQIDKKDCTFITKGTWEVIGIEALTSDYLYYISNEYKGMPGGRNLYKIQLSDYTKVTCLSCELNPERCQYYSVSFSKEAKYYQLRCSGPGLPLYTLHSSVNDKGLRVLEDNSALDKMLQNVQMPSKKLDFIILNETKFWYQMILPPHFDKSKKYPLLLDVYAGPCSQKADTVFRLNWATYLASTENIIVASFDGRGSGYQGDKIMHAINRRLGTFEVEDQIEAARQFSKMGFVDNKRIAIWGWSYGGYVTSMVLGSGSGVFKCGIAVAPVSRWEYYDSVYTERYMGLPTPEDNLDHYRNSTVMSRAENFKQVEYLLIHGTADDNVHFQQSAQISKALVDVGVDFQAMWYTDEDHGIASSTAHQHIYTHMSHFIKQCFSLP

## N[C@@H](CCC(=O)O)C(=O)N1CCC[C@H]1B(O)O [Glu-boroPro, glutamic acid boroproline]
[1]; 10 μmole/kg, day 14-15
  AUC of 24 hour glucose profile: achieve significance
[1]; 3 micromole/kg, 46 days of treatment
  triglyceride (TG) lowering: significant improvement
[1]; 10 micromole/kg
  food intake over time: apparent slight decrease in food intake
[1]; 10 micromole/kg, 46 days of treatment
  triglyceride (TG) lowering: significant improvement
[1]; 10 micromole/kg, Day 46
  HbA1C level compared to vehicle: significant reduction
[1]; 10 micromole/kg, OGTT 15 hours after drug, end of study
  OGTT glucose levels compared to vehicle: significant reduction in glucose levels
[1]; 10 micromole/kg, day 14-15
  24-hour glucose profile: improved compared to the metformin and the NVP-LAF237 groups
[1]; 10 micromoles/kg, Day 0 to Day 46
  rate of increase in HbA1C over time: decline in the rate of increase in HbA1C was most prominent
[1]; 46 days of treatment, compared to vehicle
  free fatty acids (FFA): trend towards free fatty acids (FFA) reduction but this did not reach significance
Serum DPP-IV [2]; BALB/c mice, single oral dose, 2 hours
  ID50 (dose reducing serum DPP-IV activity by 50% of baseline): 1 μg per mouse
Serum DPP-IV [2]; single oral 5 μg or 20 μg per mouse, until at least 6 hours
  serum DPP-IV inhibition persisting: greater than 80%
Zucker fa/fa rats [3]; 15 min before glucose 2 g/kg
  blood glucose excursion: reduced
Zucker fa/fa rats [3]; after oral glucose challenge
  blood plasma level of GLP-1: increased
  blood plasma level of insulin: increased
ob/ob mice; 1.0 μmol/kg oral, 15 minutes prior to glucose
  glucose excursion post oral glucose challenge: reduced
ob/ob mice; single 1.0 μmol/kg dose
  anti-glycemic effect, area under the blood glucose curve: significant
[4]
  persistence of DPP-IV inhibition after preincubation: sustained DPP-IV inhibition
Zucker fa/fa rats [5]
  insulin response: improved insulin response
Lewis rats
  MTD (maximum tolerated dose): 15,000 μg/kg
In vivo
  MTD at 5 days: 15 mg/kg
Serum DPP-IV [6]
  serum DPP-IV activity: maximally inhibited serum DPP-IV activity
DIO rats
  insulin response: improved insulin response
  insulin secretion calculated from AUC: increased insulin secretion
Serum KC/CXCL1
  serum levels of KC/CXCL1: failed to affect serum levels of KC/CXCL1 at any of the doses tested
